# Where two headings read alike, the source gives them in different places.
# What was measured:
# [1] = system: COc1ccc2c(CC(=O)N[C@@H](Cc3ccc(O)cc3)C(=O)N[C@H](C(=O)N[C@@H](C)C(=O)N[C@@H](CC(=O)O)C(=O)N[C@@H](C)C(=O)N3CCC[C@H]3C(=O)N[C@@H](CCCCNc3ccc([N+](=O)[O-])cc3[N+](=O)[O-])C(=O)O)C(C)C)cc(=O)oc2c1; test: purified protein, by the assay type; conditions: other: fluorogenic substrate of ACE-2, pH 6.5, 25° C.
# Description: (§1) ACE-2 enzymatic activity was assayed in microtitre plates by the following procedure. The ACE-2 assay buffer used contained 50 mM MES (Boehringer-Mannheim), 300 mM NaCl (Sigma) and 0.01% Brij-35 (Pierce Chemical Co.) at pH 6.5.
# (§2) Reactions were mixed and incubated at 25° C.
# [2] = system: COc1ccc2c(CC(=O)N[C@@H](C)C(=O)N3CCC[C@H]3C(=O)N[C@@H](CCCCNc3ccc([N+](=O)[O-])cc3[N+](=O)[O-])C(=O)O)cc(=O)oc2c1; test: purified protein, by the assay type; conditions: other: fluorogenic substrate of ACE-2, pH 6.5, 25° C.
# Description: as §1, §2
# [3] = Effect on appetite: food consumption in ICR mice; conditions: 3 mg/kg oral
# ACE (Sigma, A2580) = target: T1, ACE (Sigma, A2580) (Sus scrofa, UniProt F1RRW5); test: ACE enzymatic activity assay; format: biochemical, porcine; conditions: Ki class, compounds tested in 5% DMSO
# T1 construct: ACE from porcine kidney; purchased Sigma A2580; host or cells: porcine kidney
# T1 sequence (F1RRW5 34-1309): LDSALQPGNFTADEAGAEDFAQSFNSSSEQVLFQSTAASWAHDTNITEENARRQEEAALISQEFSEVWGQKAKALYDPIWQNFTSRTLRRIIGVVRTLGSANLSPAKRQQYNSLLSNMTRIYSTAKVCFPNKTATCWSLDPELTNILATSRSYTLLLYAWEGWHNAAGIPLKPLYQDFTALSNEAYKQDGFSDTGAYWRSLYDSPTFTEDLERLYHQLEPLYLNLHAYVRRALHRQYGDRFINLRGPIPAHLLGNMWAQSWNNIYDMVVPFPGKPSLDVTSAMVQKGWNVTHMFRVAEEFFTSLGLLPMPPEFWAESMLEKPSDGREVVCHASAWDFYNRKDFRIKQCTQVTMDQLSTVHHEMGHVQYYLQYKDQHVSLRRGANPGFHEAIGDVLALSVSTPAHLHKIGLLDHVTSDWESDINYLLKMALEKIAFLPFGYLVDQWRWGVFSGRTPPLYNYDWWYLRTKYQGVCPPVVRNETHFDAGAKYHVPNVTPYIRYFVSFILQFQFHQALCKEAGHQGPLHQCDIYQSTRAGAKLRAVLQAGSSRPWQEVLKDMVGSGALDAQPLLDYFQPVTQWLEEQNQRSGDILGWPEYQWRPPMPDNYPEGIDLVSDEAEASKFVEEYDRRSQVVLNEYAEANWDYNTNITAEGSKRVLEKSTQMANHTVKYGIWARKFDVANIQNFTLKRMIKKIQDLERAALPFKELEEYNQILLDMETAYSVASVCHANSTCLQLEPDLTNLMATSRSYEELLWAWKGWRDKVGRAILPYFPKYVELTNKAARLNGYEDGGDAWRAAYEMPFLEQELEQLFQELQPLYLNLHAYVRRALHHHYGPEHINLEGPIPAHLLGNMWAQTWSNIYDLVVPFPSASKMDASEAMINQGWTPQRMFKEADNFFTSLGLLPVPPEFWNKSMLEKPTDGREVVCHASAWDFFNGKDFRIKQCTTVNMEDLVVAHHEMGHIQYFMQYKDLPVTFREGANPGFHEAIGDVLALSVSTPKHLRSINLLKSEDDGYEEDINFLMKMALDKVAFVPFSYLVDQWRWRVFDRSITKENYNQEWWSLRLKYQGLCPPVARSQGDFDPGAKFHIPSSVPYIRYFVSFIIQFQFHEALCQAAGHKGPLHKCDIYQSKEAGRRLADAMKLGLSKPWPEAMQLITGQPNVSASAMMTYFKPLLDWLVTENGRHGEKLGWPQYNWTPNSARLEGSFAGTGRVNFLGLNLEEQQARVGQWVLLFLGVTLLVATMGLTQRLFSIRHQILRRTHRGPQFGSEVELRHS
# Procedure, shortened: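 ACE (1 nM final) in 50 mM HEPES, 300 mM NaCl, 0.01% Brij-35, pH 7.5, with compound in 5% DMSO at 12 concentrations, 25 °C. Substrate cleavage run ~30 min, stopped with EDTA; fluorescence read at excitation 320 nm, emission 405 nm.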
# ACE-2 [4] = target: T2, ACE-2 (Homo sapiens, UniProt Q9BYF1); test: ACE-2 Competitive Substrate Assay (ACS Assay); format: biochemical
# T2 construct: a stop codon inserted after the serine immediately preceding the transmembrane domain; made in house; host or cells: CHO K1 cells (transient transfection, purified from conditioned medium)
# Carboxypeptidase A = target: T3, Carboxypeptidase A (Bos taurus, UniProt P00730); test: Carboxypeptidase A activity assay; format: biochemical; conditions: Ki class, compounds tested in 5% DMSO
# T3 sequence (P00730 111-419): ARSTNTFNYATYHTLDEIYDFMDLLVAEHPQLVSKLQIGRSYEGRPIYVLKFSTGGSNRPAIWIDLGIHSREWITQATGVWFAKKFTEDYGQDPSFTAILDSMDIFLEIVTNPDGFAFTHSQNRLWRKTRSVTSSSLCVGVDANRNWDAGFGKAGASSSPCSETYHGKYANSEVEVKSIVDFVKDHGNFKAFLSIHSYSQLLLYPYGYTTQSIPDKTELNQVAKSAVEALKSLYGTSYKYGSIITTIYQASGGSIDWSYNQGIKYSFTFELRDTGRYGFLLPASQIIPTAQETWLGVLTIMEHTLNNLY
# Procedure, shortened: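 Bovine carboxypeptidase A activity followed at 328 nm in 5% DMSO, reaction stopped with EDTA. Activity measured at 12 compound concentrations. Ki derived from apparent Ki as Ki=Kiapp/(1+[S]/Km).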
# ACE-2 [5] = target: ACE-2 (Rattus norvegicus, UniProt Q5EGZ1); test: ACE-2 Competitive Substrate Assay, rat ACE-2; format: biochemical; conditions: Ki class, compounds tested in 5% DMSO
# Sequence of ACE-2 (Rattus norvegicus, UniProt Q5EGZ1) (Q5EGZ1 18-805): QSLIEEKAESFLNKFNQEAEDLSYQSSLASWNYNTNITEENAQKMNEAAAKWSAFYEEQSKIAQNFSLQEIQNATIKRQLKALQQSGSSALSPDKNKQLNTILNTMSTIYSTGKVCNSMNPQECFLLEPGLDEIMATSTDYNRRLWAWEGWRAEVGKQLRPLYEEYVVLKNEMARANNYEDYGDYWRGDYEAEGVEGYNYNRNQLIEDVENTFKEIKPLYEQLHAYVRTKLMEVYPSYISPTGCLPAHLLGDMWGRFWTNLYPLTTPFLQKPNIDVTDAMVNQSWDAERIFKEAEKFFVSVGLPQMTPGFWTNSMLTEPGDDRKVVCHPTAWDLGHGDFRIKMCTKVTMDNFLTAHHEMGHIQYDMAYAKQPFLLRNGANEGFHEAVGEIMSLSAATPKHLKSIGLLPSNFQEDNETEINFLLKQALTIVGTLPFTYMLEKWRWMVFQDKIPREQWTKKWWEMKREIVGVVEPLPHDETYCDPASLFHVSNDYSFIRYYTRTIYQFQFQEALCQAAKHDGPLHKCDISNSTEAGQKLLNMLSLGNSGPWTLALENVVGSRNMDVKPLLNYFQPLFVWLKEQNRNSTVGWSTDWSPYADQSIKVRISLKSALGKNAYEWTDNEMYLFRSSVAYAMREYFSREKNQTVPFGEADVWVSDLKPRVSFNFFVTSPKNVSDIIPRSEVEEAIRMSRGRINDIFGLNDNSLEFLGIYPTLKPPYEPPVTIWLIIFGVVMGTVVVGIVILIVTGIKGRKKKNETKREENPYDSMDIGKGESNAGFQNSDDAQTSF
# T2 sequence (Q9BYF1 18-740 limits assumed): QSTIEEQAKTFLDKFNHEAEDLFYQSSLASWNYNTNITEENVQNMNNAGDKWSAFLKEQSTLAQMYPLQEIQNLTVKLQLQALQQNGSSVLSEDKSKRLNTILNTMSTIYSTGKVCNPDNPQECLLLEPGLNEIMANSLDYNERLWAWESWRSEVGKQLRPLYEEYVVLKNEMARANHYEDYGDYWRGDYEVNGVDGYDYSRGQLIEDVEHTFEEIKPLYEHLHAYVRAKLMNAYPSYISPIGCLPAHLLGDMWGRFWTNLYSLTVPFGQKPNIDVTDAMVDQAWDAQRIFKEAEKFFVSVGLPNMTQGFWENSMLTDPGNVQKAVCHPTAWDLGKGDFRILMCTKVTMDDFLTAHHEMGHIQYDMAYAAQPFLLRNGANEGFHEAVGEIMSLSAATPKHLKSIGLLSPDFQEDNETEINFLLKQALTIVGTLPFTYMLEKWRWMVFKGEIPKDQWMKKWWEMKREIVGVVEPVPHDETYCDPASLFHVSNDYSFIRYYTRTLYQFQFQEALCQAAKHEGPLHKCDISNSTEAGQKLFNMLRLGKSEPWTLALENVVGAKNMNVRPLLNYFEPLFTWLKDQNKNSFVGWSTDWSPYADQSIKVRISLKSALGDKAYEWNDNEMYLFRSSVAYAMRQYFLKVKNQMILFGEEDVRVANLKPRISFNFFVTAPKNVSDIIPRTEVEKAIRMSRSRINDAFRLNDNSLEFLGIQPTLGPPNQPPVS
compound,measurement,setting,value
ACE-2 (Homo sapiens),Km,[1],130 µM
same,kcat/Km,[1],42000 M⁻¹ s⁻¹
same,Km,[2],340 µM
same,kcat/Km,[2],230000 M⁻¹ s⁻¹
"CC(N)Cc1ccccc1 (stereo not drawn) [amphetamine, reference compound]",cumulative food consumption,[3]; one hour,about 0.18±0.05 g
same,cumulative food consumption,[3]; six hours,about 3.10±0.03 g
"Cc1ccc(Cn2cncc2C[C@H](NC(CC(C)C)C(=O)O)C(=O)O)cc1 (single isomer, unassigned) [HG, 2-[1-Carboxy-2-[3-(4-methyl-benzyl)-3H-imidazol-4-yl]-ethylamino)4-methyl-pentanoic acid]",Ki,"ACE (Sigma, A2580); 12 compound concentrations",10 to 50 µM
same,Ki,"ACE-2 [4]; Ki class, compounds tested in 5% DMSO, 12 compound concentrations, Ki=Kiapp/(1+[S]/Km), read-out: Human ACE-2 Activity",< 0.1 µM
same,Ki,"ACE-2 [4]; Table 3, very good ACE-2 inhibiting compounds, species not given, read-out: ACE-2 Activity, Ki",< 0.05 µM
same,Ki,Carboxypeptidase A; 12 compound concentrations,10 to 50 µM
same,Ki,ACE-2 [5]; 12 compound concentrations,< 0.1 µM
"CCCC(N[C@H](CCc1ccccc1)C(=O)O)C(=O)O (stereo in doubt) [BA, 2-(1-Carboxy-3-phenyl-propylamino)-pentanoicacid]",Ki,"ACE (Sigma, A2580); 12 concentrations",> 50 µM
same,Ki,"ACE-2 [4]; Ki class, compounds tested in 5% DMSO, 12 concentrations, read-out: Human ACE-2 Activity",> 0.5 µM
same,Ki,Carboxypeptidase A; 12 concentrations,> 50 µM
same,Ki,ACE-2 [5]; 12 concentrations,> 0.5 µM

# Reference: patent US7045532B2 (Millennium Pharmaceuticals, Inc., priority 1999, dated 2006)
